Source: patent US20120035247A1, “RNA Interference Mediated Inhibition of Signal Transducer and Activator of Transcription 6 (STAT6) Gene Expression Using Short Interfering Nucleic Acid (siNA)” (Merck Sharp & Dohme Corp., priority 2009, published 2012)
[invAb] = inverted abasic unit; m = 2'-O-methyl; r = 2'-OH (RNA); f = 2'-fluoro

Columns and labels:
[1] = test system: STAT6 mRNA; assay: STAT6 siNA screen and dose response in human A549 cells, STAT6 mRNA by quantitative RT-PCR (Taqman); type: cell-based; conditions: human A549 cells, 10 nM siNA, 24 hrs, normalized to GAPDH and non-targeting control, mean ± S.D., n = 3
Outline: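 A549 cells were transfected with siNA–RNAiMax complexes at a final 10 nM siNA and incubated 24 h without a medium change. STAT6 mRNA was measured by TaqMan qRT-PCR on cell lysates. Knock-down was calculated by the comparative Ct (ΔΔCt) method against the non-targeting control siNA, with relative expression taken as 2^−ΔΔCt.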

[2] = test system: STAT6 mRNA; assay: STAT6 siNA screen in mouse NIH 3T3 cells, STAT6 mRNA by quantitative RT-PCR (Taqman); type: cell-based; conditions: mouse NIH3T3 cells, 10 nM siNA, 24 hrs, normalized to GAPDH and non-targeting control, n = 2
Outline: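 NIH 3T3 cells, 5000/well, transfected after 24 h with siNA (10 nM final) via RNAiMax and harvested 24 h later. STAT6 mRNA quantified by TaqMan RT-qPCR with GAPDH; knock-down by comparative Ct (2^−ΔΔCt) against non-targeting control siNA.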

Substance | % KD STAT6 [1] | % KD STAT6 [2]
30021-DC: STAT6 siNA duplex; sense SEQ ID NO: 106, antisense SEQ ID NO: 107; target GUCAAUGGUCCUGGUCCAA, site 793 (sense GUCAAUGGUCCUGGUCCAATT; antisense UUGGACCAGGACCAUUGACUU; sense: DNA at AGT, 2'-fluoro at CU, [invAb] at 5' end, 3' end, backbone not given here; antisense: sugars from the 5' end rrrmmffmmmmffmffmmfmm, backbone not given here) [STAT6 siNA duplex; target GUCAAUGGUCCUGGUCCAA, site 793] | 17.2 ± 7.5% | −7 ± 7.2%
30022-DC: STAT6 siNA duplex; sense SEQ ID NO: 108, antisense SEQ ID NO: 109; target CCAAGACCCGGGCAUCGCU, site 1037 (sense CCAAGACCCGGGCAUCGCUTT; antisense AGCGAUGCCCGGGUCUUGGUU; sense: DNA at AGT, 2'-fluoro at CU, [invAb] at 5' end, 3' end, backbone not given here; antisense: chemistry not given here; in the key) [STAT6 siNA duplex; target …UCGCU, site 1037] | 56.1 ± 8.3% | 51.5 ± 0%
30023-DC: STAT6 siNA duplex; sense SEQ ID NO: 110, antisense SEQ ID NO: 111; target CACCUUAUGAUCUUGGAAU, site 2288 (sense CACCUUAUGAUCUUGGAAUTT; antisense AUUCCAAGAUCAUAAGGUGUU; sense: DNA at AGT, 2'-fluoro at CU, [invAb] at 5' end, 3' end, backbone not given here; antisense: sugars from the 5' end rrrffmmmmffmfmmmmfmmm, backbone not given here) [STAT6 siNA duplex; target CACCUUAUGAUCUUGGAAU, site 2288] | 15.3 ± 05.4% | −0.8 ± 3.8%
30024-DC: STAT6 siNA duplex; sense SEQ ID NO: 112, antisense SEQ ID NO: 113; target CGCUGUCUCCGGAGCUACU, site 1850 (sense CGCUGUCUCCGGAGCUACUTT; antisense AGUAGCUCCGGAGACAGCGUU; sense: DNA at AGT, 2'-fluoro at CU, [invAb] at 5' end, 3' end, backbone not given here; antisense: sugars from the 5' end rrrmmffffmmmmmfmmfmmm, backbone not given here) [STAT6 siNA duplex; target CGCUGUCUCCGGAGCUACU, site 1850] | 38.9 ± 11.2% | 19.5 ± 5.6%
30025-DC: STAT6 siNA duplex; sense SEQ ID NO: 114, antisense SEQ ID NO: 115; target AACGCUGUCUCCGGAGCUA, site 1848 (sense AACGCUGUCUCCGGAGCUATT; antisense UAGCUCCGGAGACAGCGUUUU; sense: DNA at AGT, 2'-fluoro at CU, [invAb] at 5' end, 3' end, backbone not given here; antisense: sugars from the 5' end rrrffffmmmmmfmmfmffmm, backbone not given here) [STAT6 siNA duplex; target AACGCUGUCUCCGGAGCUA, site 1848] | 48.1 ± 7.5% | 34.2 ± 1.8%
